For data set [1], the system named is RBL-2H3 cells. Description: IgE/antigen-induced RBL-2H3 basophils' degranulation (β-hexosaminidase release). The format is cell-based, rat. The following applies: for Effect on IgE/antigen-induced degranulation (in words): naphthazarin 0.1 µM, plumbagin 1 µM. The method, then:
RBL-2H3 cells were seeded at 3.0×10^5 cells/mL in 24-wells plate (1 mL/well), and assayed after 24h at near-confluent stage (∼90%). Two different degranulation stimuli were used: calcium ionophore A23187 500 ng/mL (1 µM) and an immunologic stimulus (100 ng/mL IgE anti-DNP followed by 100 ng/mL DNP-BSA) that we refer to as IgE/antigen (Fig. 2). […] Thus, the ability of naphthoquinones to reduce β-hexosaminidase release was quantified for both stimuli, whereas effects upon histamine were only quantified with the A23187 stimulus, given the low histamine release and poor signal to noise achieved with IgE/antigen.
When the IgE/antigen was used as stimulus, cells were incubated during 16 h with 100 ng/ml IgE anti-DNP and with individual naphthoquinones diluted in culture medium. After washing twice with Dulbecco's phosphate buffered saline (DPBS), cells were treated for 1 h, at 37°C, with 100 ng/ml DNP-BSA and with individual naphthoquinones diluted in EBSS supplemented with 0.1% BSA (Fig. 2A). After treatments, supernatants were collected in order to quantify released β-hexosaminidase and released histamine, while cell viability assay was performed on adherent cells.
The release of β-hexosaminidase from stimulated-RBL-2H3 cells was measured as previously described. In a 96-wells plate, 50 µl of substrate solution [p-nitrophenyl N-acetyl-D-glucosamine 1.3 mg/ml in citrate buffer (pH 4.5)] were added to 30 µl of supernatant. The plate was incubated at 37°C, during 1 h.

The subject of data set [2] is RBL-2H3 cells. Description: Calcium ionophore A23187-induced RBL-2H3 degranulation (β-hexosaminidase release). The following applies: for Effect on A23187 (calcium ionophore)-induced degranulation (in words): naphthazarin 0.1 µM, plumbagin 1 µM, diospyrin 10 µM, others at maximal tested concentrations. Type of data set: cell-based, rat. The method, then:
(§1) RBL-2H3 cells were seeded at 3.0×10^5 cells/mL in 24-wells plate (1 mL/well), and assayed after 24h at near-confluent stage (∼90%). Two different degranulation stimuli were used: calcium ionophore A23187 500 ng/mL (1 µM) and an immunologic stimulus (100 ng/mL IgE anti-DNP followed by 100 ng/mL DNP-BSA) that we refer to as IgE/antigen (Fig. 2). Both stimuli induced degranulation, which was quantified by β-hexosaminidase and histamine release. With IgE/antigen, β-hexosaminidase release (p-nitrophenolate absorbance) increased by 65.4±6.8% above basal (n = 16; P<0.001), whereas histamine increased from the basal value of 0.156±0.151 µM towards 0.521±0.186 µM (n = 10; P<0.05). With A23187, β-hexosaminidase release increased by 187±18.9% above basal (n = 12; P<0.001), whereas histamine increased towards 2.43±0.330 µM (n = 12; P<0.001). Thus, the ability of naphthoquinones to reduce β-hexosaminidase release was quantified for both stimuli, whereas effects upon histamine were only quantified with the A23187 stimulus, given the low histamine release and poor signal to noise achieved with IgE/antigen.
Before treatment with A23187, cells were incubated with individual naphthoquinones during 15 min, at 37°C. After that, A23187 1 µM was added and cells incubated for 30 min, at 37°C (Fig. 2B). Compounds were freshly diluted prior to cell exposure using EBSS supplemented with 0.1% BSA [21]. β-hexosaminidase and histamine release was quantified in supernatants, whereas the MTT cell viability assay was performed on adherent cells.
The release of β-hexosaminidase from stimulated-RBL-2H3 cells was measured as previously described. In a 96-wells plate, 50 µl of substrate solution [p-nitrophenyl N-acetyl-D-glucosamine 1.3 mg/ml in citrate buffer (pH 4.5)] were added to 30 µl of supernatant. The plate was incubated at 37°C, during 1 h. The reaction was stopped by the addition of 80 µl of NaOH 0.5 M and the reaction product, p-nitrophenolate, was measured spectrophotometrically at 405 nm, in a microplate reader (Multiskan ASCENT Thermo®).

In data set [3] the test system is RBL-2H3 cells. Description: Histamine release in A23187-stimulated RBL-2H3 cells. The note with it: 10 µM; A23187 1 µM stimulus. Type of data set: cell-based, rat. The method, then:
as §1, with “With A23187, β-hexosaminidase release increased by 187±18.9% above basal (n = 12; P<0.001), whereas histamine increased towards 2.43±0.330 µM (n = 12; P<0.001).” left out
Before treatment with A23187, cells were incubated with individual naphthoquinones during 15 min, at 37°C. […] Compounds were freshly diluted prior to cell exposure using EBSS supplemented with 0.1% BSA [21]. β-hexosaminidase and histamine release was quantified in supernatants, whereas the MTT cell viability assay was performed on adherent cells. […]

Data set [4] deals with hyaluronidase from bovine tests (type IV-S; EC 3.2.1.35). As to the kind of experiment: Hyaluronidase inhibition, cell-free (Morgan-Elson). The note with it: for Hyaluronidase inhibition (%): maximal inhibition, mean±SEM. Type of data set: biochemical. The protocol: The reaction product, N-acetyl-sugar, was quantified according Morgan-Elson colour reaction with minor modifications. The Morgan-Elson reaction was started by addition of 25 µl disodium tetraborate 0.8 M and subsequent heating in a boiling water bath during 3 min. After cooling, 750 µl p-dimethylaminobenzaldehyde (DMAB) was added and the reaction mixture was incubated at 37°C for 20 min. […] The measurement was made spectrophotometrically, at 560 nm, in a microplate reader (Multiskan ASCENT Thermo®), [24]. Sodium cromoglycate was used as a positive control for inhibition.

The target of data set [5] is T1, soybean lipoxidase (Glycine max, UniProt P08170).
T1 construct: purchased Sigma-Aldrich (St. Louis, MO, USA) type V-S; host or cells: soybean (plant preparation)
T1 sequence (P08170 1-839): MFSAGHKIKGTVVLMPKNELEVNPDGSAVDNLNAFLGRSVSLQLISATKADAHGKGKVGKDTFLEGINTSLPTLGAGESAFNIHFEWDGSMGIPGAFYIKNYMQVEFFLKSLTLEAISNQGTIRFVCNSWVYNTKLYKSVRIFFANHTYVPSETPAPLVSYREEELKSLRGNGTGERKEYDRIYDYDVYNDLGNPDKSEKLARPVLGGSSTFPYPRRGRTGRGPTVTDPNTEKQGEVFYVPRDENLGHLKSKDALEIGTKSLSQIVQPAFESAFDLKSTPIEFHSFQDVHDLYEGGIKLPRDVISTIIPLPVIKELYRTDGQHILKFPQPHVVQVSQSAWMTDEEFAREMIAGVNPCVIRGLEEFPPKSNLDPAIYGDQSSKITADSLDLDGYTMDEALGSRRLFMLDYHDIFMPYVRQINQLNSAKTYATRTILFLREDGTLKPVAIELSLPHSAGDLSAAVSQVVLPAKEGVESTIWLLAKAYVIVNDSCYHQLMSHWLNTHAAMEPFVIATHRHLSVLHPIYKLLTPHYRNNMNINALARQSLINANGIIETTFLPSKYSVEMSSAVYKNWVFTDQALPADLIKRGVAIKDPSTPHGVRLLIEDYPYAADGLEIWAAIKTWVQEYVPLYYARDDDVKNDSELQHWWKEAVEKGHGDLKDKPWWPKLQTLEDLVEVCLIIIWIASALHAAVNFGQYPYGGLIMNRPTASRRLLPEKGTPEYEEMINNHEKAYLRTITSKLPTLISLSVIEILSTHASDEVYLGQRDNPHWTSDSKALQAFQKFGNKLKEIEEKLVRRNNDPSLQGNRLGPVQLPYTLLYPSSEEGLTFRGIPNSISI
As to the kind of experiment: Soybean lipoxidase inhibition, cell-free. Type of data set: biochemical, Glicine max (L.) Merr. The following applies: mean±SEM; for IC50: cell-free assay. The protocol:
Lipoxidase catalyses the oxidation of linoleic acid to the conjugated diene, 13-hydroperoxy linoleic acid, which was measured spectrophotometrically at 234 nm on a UV/visible spectrophotometer (UNICAM Helios α). The blank was measured in a reaction mixture with 20 µl of individual naphthoquinones solution, 1 ml of phosphate buffer (pH 9) and 20 µl of soybean lipoxidase 500 U. After 5 min pre-incubation at room temperature, the reaction was started by addition of 50 µl of substrate (linoleic acid) at 2 mM in ethanol. The reaction time was 3 min.

In data set [6] the test system is leukotriene C4 production. Description: Leukotriene C4 production in IgE/antigen-stimulated RBL-2H3 cells (EIA). Type of data set: cell-based, rat. The following applies: 1 µM.
Data set [7] has as its system RBL-2H3 cells. Type of data set: cell-based. The following applies: rat. The protocol:
Cell viability was assessed by the cellular dehydrogenases' dependent reduction of MTT to formazan, which was quantified by the measurement of optical density at 550 nm using a microplate reader (Multiskan ASCENT Thermo®), as described before.

The test system of data set [8] is peripheral blood mononuclear cells (PBMC). Also on record: method as in PMID 21134493. The note with it: 5 µM; phytohemagglutinin-stimulated PBMC; cited from earlier work.
The mark [9] stands for this setting: Rattus norvegicus, RBL-2H3, maximal inhibition, mean±SEM, read-out: Degranulation inhibition (%) IgE/antigen (decrease of β-hexosaminidase release).
[10] abbreviates: Rattus norvegicus, RBL-2H3, maximal inhibition, mean±SEM, read-out: Degranulation inhibition (%) A23187 (decrease of β-hexosaminidase release).

Molecules are shown by their SMILES. “Also recorded” adds a separate entry of the source.

A word on the IC50: it is the concentration at which inhibition is half-maximal. Lower therefore signals higher potency. Regarding `Cc1cc(O)c2c(c1)C(=O)C(c1c(C)cc3c(c1O)C(=O)C=CC3=O)=CC2=O` [Diospyrin, diospyrin], the inhibition at 1 µM in data set [1] (setting [9]) is under 15%. The inhibition at 10 µM in data set [2] (setting [10]) turned out to be 56.8 ± 14.6%. The “Effect on A23187 (calcium ionophore)-induced degranulation (in words)” value in data set [2] is on record as “reduced degranulation”. The “Decrease of histamine release” value in data set [3] was found to be 51.4±12.8%. Besides, in data set [4] (20 µM), the “Hyaluronidase inhibition (%)” value is reported as < 15 (20 µM) %. The inhibition at 36.7 µM in data set [5] (36.7 µM, maximal inhibition) amounted to 65.6 ± 6.24%. Also, the half-inhibitory concentration (IC50) in data set [5] was determined as 28.9 ± 2.53 µM. The “Effect on leukotriene (LT) C4 levels evoked by IgE/antigen (in words)” value in data set [6] was “unaffected; also recorded: unable to reduce leukotrien C4”.
For the compound `Cc1cc(O)c2c(c1)C(=O)C(c1c(C)cc3c(c1O)C(=O)C1OC1C3=O)=CC2=O` (stereo not drawn) [Diosquinone, diosquinone], the results for the inhibition at 1 µM in data set [1] (setting [9]) and in data set [2] (setting [10]) were 18.4 ± 8.07% and under 15%, respectively. The “Hyaluronidase inhibition (%)” value in data set [4] (100 µM) is listed as < 15 (100 µM) %. This compound displayed an inhibition at 183.5 µM in data set [5] (maximal inhibition) of 96.5 ± 0.92%. Further, the IC50 in data set [5] was 83.8 ± 9.33 µM. For the same compound, in data set [6], the “Effect on leukotriene (LT) C4 levels evoked by IgE/antigen (in words)” value is reported as “unaffected”.
As to `O=C1C=CC(=O)c2c(O)cccc21` [Juglone, juglone], the inhibition at 10 µM was 39.2 ± 13.3% in data set [1] (Rattus norvegicus, RBL-2H3, 10 µM, maximal inhibition, mean±SEM, read-out: Degranulation inhibition (%) IgE/antigen (decrease of β-hexosaminidase release)) and under 15% in data set [2] (setting [10]). The “Hyaluronidase inhibition (%)” value in data set [4] (100 µM) was < 15 (100 µM) %. Besides, the inhibition at 183.5 µM in data set [5] (maximal inhibition) amounted to 53.1 ± 13.8%.
Take `O=C1C=CC(=O)c2c(O)ccc(O)c21` [Naphthazarin, naphthazarin]: the inhibition at 0.1 µM in data set [1] (Rattus norvegicus, RBL-2H3, 0.1 µM, maximal inhibition, mean±SEM, read-out: Degranulation inhibition (%) IgE/antigen (decrease of β-hexosaminidase release)) is 30.8 ± 3.82%; in data set [2] (Rattus norvegicus, RBL-2H3, 0.1 µM, maximal inhibition, mean±SEM, read-out: Degranulation inhibition (%) A23187 (decrease of β-hexosaminidase release)), under 15%. In data set [1], the “Effect on IgE/antigen-induced degranulation (in words)” value was “decreased IgE/antigen-induced degranulation”. Further, the “Effect on A23187 (calcium ionophore)-induced degranulation (in words)” value in data set [2] is “failed to reduce ionophore-induced degranulation”. For the same compound, the “Hyaluronidase inhibition (%)” value in data set [4] (100 µM) is 16.9±2.45 (100 µM) %. In data set [5] (maximal inhibition), this compound had an inhibition at 183.5 µM of 54.4 ± 9.33%. In data set [5], the half-maximal inhibitory concentration (IC50) worked out at 142 ± 27.1 µM.
On to `CC1=CC(=O)c2c(O)cccc2C1=O` [Plumbagin, plumbagin], for which the inhibition at 1 µM in data set [1] (setting [9]) and in data set [2] (setting [10]) was under 15% throughout. Further, the “Effect on IgE/antigen-induced degranulation (in words)” value in data set [1] was “did not prevent degranulation”. The “Effect on A23187 (calcium ionophore)-induced degranulation (in words)” value in data set [2] is recorded as “did not prevent degranulation”. The “Hyaluronidase inhibition (%)” value in data set [4] (100 µM) was < 15 (100 µM) %. In addition, the inhibition at 183.5 µM in data set [5] (maximal inhibition) worked out at 49.8 ± 5.23%. In addition, in data set [5], the half-maximal inhibitory concentration (IC50) is over 184 µM. Moreover, the Maximum non-toxic concentration in data set [7] is recorded as 1 µM. The “Effect on cytokines production (in words)” value in data set [8] is “inhibited cytokines production”.
Turning to `O=c1c(O)c(-c2ccc(O)c(O)c2)oc2cc(O)cc(O)c12` [Quercetin, reference compound], in data set [2] (A23187 assay, 10-fold higher than in IgE/antigen assay), the “Concentration required to reduce β-hexosaminidase release” value was found to be 100 µM.
For `O=C(O)c1cc(=O)c2c(OCC(O)COc3cccc4oc(C(=O)O)cc(=O)c34)cccc2o1` [sodium cromoglycate, Sodium cromoglycate, reference compound], in data set [4] (positive control), the “Concentration required for complete hyaluronidase inhibition” value was found to be 10 mM.

Source of the values: PMC3938571, “Modulation of Basophils' Degranulation and Allergy-Related Enzymes by Monomeric and Dimeric Naphthoquinones” (PLoS ONE, 2014).
